Legend:
Settings in all cases: Table 35
MLKL (full length) = MLKL (full length) (Homo sapiens (Human), UniProt Q8NB16); assay: KINOMEscan binding assay, MLKL (full length)
Experimental: (§1) Kinase assays. For most assays, kinase-tagged T7 phage strains were grown in parallel in 24-well blocks in an E. coli host derived from the BL21 strain. E. coli were grown to log-phase and infected with T7 phage from a frozen stock (multiplicity of infection=0.4) and incubated with shaking at 32° C. until lysis (90-150 minutes).
(§2) The Hill Slope was set to −1.

RIP3 = RIP3 (Homo sapiens (Human), UniProt Q9Y572); assay: KINOMEscan binding assay, RIP3
Experimental: as §1, §2

RIP1 = RIP1 (Homo sapiens (Human), UniProt Q13546); assay: KINOMEscan binding assay, RIP1
Sequence of RIP1 (Q13546 whole entry): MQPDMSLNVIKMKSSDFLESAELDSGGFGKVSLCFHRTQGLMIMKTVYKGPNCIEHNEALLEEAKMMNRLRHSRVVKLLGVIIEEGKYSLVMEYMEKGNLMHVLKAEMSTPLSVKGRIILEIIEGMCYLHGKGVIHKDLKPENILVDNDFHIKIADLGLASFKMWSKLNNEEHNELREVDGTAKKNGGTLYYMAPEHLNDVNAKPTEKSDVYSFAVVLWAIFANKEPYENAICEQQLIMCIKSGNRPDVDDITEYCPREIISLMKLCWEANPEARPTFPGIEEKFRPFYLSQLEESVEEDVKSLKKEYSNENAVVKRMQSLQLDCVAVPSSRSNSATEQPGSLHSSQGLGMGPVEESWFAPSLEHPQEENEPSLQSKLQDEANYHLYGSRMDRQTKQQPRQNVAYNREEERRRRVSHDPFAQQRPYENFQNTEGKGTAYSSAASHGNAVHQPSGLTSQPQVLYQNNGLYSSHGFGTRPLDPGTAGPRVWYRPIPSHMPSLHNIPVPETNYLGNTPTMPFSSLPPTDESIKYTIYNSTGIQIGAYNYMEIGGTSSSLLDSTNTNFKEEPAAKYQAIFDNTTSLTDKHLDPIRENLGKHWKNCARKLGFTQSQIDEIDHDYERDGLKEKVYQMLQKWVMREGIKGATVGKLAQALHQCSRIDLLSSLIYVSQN

Sequence of RIP3 (Q9Y572 whole entry): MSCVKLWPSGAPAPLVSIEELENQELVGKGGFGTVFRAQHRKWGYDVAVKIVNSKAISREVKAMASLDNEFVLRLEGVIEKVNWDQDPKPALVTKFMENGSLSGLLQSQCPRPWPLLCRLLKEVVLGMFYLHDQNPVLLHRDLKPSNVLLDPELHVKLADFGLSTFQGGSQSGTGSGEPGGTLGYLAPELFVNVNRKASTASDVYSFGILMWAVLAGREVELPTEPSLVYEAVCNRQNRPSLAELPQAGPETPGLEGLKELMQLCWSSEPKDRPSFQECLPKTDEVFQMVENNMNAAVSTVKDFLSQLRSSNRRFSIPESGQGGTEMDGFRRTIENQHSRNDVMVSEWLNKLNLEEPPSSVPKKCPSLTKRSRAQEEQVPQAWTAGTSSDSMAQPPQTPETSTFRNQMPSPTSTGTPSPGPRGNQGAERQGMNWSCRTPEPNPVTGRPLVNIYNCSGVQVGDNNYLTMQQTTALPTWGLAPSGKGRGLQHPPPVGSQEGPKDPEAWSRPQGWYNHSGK
Sequence of MLKL (full length) (Q8NB16 whole entry): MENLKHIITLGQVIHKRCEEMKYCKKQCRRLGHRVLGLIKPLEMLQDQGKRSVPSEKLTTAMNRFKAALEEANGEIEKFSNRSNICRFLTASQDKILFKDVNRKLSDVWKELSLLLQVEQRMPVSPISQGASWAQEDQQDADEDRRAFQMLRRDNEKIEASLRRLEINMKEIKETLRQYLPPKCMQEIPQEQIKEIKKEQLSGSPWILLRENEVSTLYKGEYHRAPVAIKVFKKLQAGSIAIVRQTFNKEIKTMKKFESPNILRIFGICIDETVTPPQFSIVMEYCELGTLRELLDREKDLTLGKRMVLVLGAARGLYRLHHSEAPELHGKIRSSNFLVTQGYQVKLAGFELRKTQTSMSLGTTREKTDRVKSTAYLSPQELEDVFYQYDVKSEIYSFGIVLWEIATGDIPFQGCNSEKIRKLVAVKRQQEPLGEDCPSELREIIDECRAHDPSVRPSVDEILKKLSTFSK

Row | Kd (MLKL (full length)) [µM] | Kd (RIP3) [µM] | Kd (RIP1) [µM] | Compound
1 | < 0.01 | > 30 |  | CCS(=O)(=O)Nc1ccc(-c2n[nH]c(Nc3ccccn3)c2C(N)=O)cc1OCc1cccc(Cl)c1 [Compound 38, 3-(3-((3-chlorobenzyl)oxy)-4-(ethylsulfon-amido)phenyl)-5-(pyridin-2-ylamino)-1H-pyrazole-4-carboxamide]
2 |  | > 30 | > 30 | Cc1ccc(CS(=O)(=O)Nc2ccc(-c3n[nH]c(Nc4ccccn4)c3C(N)=O)cc2)cc1 [Compound 132, 5-(pyridin-2-ylamino)-3-(4-((p-tolylmethyl)sulfonamido)phenyl)-1H-pyrazole-4-carboxamide]
3 |  | > 30 | > 30 | CCS(=O)(=O)Nc1ccc(-c2n[nH]c(Nc3ccc4ccc(Cl)cc4n3)c2C(N)=O)cc1OCc1ccc(F)cc1 [Compound 138, 5-((7-chloroquinolin-2-yl)amino)-3-(4-(ethylsulfonamido)-3-((4-fluorobenzyl)oxy)phenyl)-1H-pyrazole-4-carboxamide]
4 |  | > 30 | > 30 | CCS(=O)(=O)Nc1ccc(-c2n[nH]c(Nc3cccc(C(F)(F)F)n3)c2C(N)=O)c(OCc2ccc(F)cc2)c1 [Compound 141, 3-(4-(ethylsulfonamido)-2-((4-fluorobenzyl)oxy)phenyl)-5-((6-(trifluoromethyl)pyridine-2-yl)amino)-1H-pyrazole-4-carboxamide]
5 |  | > 30 | > 30 | NC(=O)c1c(-c2ccc(NS(=O)(=O)CCC(F)(F)F)c(OCc3ccc(F)cc3)c2)n[nH]c1Nc1cccc(C(F)(F)F)n1 [Compound 182, 3-(3-((4-fluorobenzyl)oxy)-4-((3,3,3-trifluoropropyl)sulfonamido)phenyl)-5-((6-(trifluoromethyl)pyridine-2-yl)amino)-1H-pyrazole-4-carboxamide]
6 |  | > 30 | > 30 | CCS(=O)(=O)Nc1ccc(-c2n[nH]c(Nc3cnccn3)c2C(N)=O)cc1OCC1CCCN(C)C1 (centres unmarked) [Compound 187, 3-(4-(ethylsulfonamido)-3-((1-methylpiperidin-3-yl)methoxy)phenyl)-5-(pyrazin-2-ylamino)-1H-pyrazole-4-carboxamide]
7 |  | > 30 | > 30 | CCS(=O)(=O)Nc1ccc(-c2n[nH]c(Nc3cccnc3C(F)(F)F)c2C(N)=O)cc1OCc1ccc(F)cc1 [Compound 192, 3-(4-(ethylsulfonamido)-3-((4-fluorobenzyl)oxy)phenyl)-5-((2-(trifluoromethyl)pyridine-3-yl)amino)-1H-pyrazole-4-carboxamide]
8 |  | > 30 | > 30 | CCS(=O)(=O)Nc1ccc(-c2n[nH]c(Nc3cccc(C(F)(F)F)n3)c2C(N)=O)cc1OCC1CCCCC1 [Compound 200]
9 |  | > 30 | > 30 | CCS(=O)(=O)Nc1ccc(-c2n[nH]c(Nc3cnccn3)c2C(N)=O)cc1OCC1CCN(C)CC1 [Compound 203, 3-(4-(ethylsulfonamido)-3-((1-methylpiperidin-4-yl)methoxy)phenyl)-5-(pyrazin-2-ylamino)-1H-pyrazole-4-carboxamide]
10 |  | > 30 | > 30 | CCS(=O)(=O)Nc1ccc(-c2n[nH]c(Nc3ccc(C(F)(F)F)cn3)c2C(N)=O)cc1OCc1ccc(F)cc1 [Compound 207]
11 |  | > 30 | > 30 | CCS(=O)(=O)Nc1ccc(-c2n[nH]c(Nc3cnccn3)c2C(N)=O)c(OCc2cccc(F)c2)c1 [Compound 208, 3-(4-(ethylsulfonamido)-2-((3-fluorobenzyl)oxy)phenyl)-5-(pyrazin-2-ylamino)-1H-pyrazole-4-carboxamide]
12 |  | > 30 | > 30 | CCS(=O)(=O)Nc1ccc(-c2n[nH]c(Nc3cnccn3)c2C(N)=O)c(OC)c1 [Compound 209, 3-(4-(ethylsulfonamido)-2-methoxyphenyl)-5-(pyrazin-2-ylamino)-1H-pyrazole-4-carboxamide]
13 |  | > 30 | > 30 | CCS(=O)(=O)Nc1ccc(-c2n[nH]c(Nc3cnccn3)c2C(N)=O)cc1OCc1cccc(OC(F)(F)F)c1 [Compound 214, 3-(4-(ethylsulfonamido)-3-((3-(trifluoromethoxy)benzyl)oxy)phenyl)-5-(pyrazin-2-ylamino)-1H-pyrazole-4-carboxamide]
14 |  | > 30 | > 30 | CCS(=O)(=O)Nc1ccc(-c2n[nH]c(Nc3cnccn3)c2C(N)=O)cc1OCc1ccc(OC(F)(F)F)cc1 [Compound 215, 3-(4-(ethylsulfonamido)-3-((4-(trifluoromethoxy)benzyl)oxy)phenyl)-5-(pyrazin-2-ylamino)-1H-pyrazole-4-carboxamide]
15 |  | > 30 | > 30 | CCS(=O)(=O)Nc1ccc(-c2n[nH]c(Nc3cnccn3)c2C(N)=O)cc1OCc1ccc(C(F)(F)F)cc1 [Compound 216, 3-(4-(ethylsulfonamido)-3-((4-(trifluoromethyl)benzyl)oxy)phenyl)-5-(pyrazin-2-ylamino)-1H-pyrazole-4-carboxamide]
16 |  | > 30 | > 30 | CCS(=O)(=O)Nc1ccc(-c2n[nH]c(Nc3cnccn3)c2C(N)=O)cc1OCc1cccc(C(F)(F)F)c1 [Compound 218, 3-(4-(ethylsulfonamido)-3-((3-(trifluoromethyl)benzyl)oxy)phenyl)-5-(pyrazin-2-ylamino)-1H-pyrazole-4-carboxamide]
17 |  | > 30 | > 30 | CCS(=O)(=O)Nc1ccc(-c2n[nH]c(Nc3ccc4cc(Cl)ccc4n3)c2C(N)=O)cc1OCc1ccc(F)cc1 [Compound 220, 5-((6-chloroquinolin-2-yl)amino)-3-(4-(ethylsulfonamido)-3-((4-fluorobenzyl)oxy)phenyl)-1H-pyrazole-4-carboxamide]
18 |  | > 30 | > 30 | C[C@H](Oc1cc(NS(=O)(=O)C(F)F)ccc1-c1n[nH]c(Nc2cnccn2)c1C(N)=O)c1ccc(F)cc1 [Compound 243, 3-[4-(difluoromethanesulfonamido)-2-[(1 S)-1-(4-fluorophenyl)ethoxy]phenyl]-5-[(pyrazin-2-yl)amino]-1H-pyrazole-4-carboxamide]
19 |  | > 30 | > 30 | C[C@H](Oc1cc(NS(=O)(=O)CC(F)(F)F)ccc1-c1n[nH]c(Nc2cnccn2)c1C(N)=O)c1ccc(F)cc1 [Compound 244, 3-{2-[(1S)-1-(4-fluorophenyl)ethoxy]-4-(2,2,2-trifluoroethanesulfonamido)phenyl}-5-[(pyrazin-2-yl)amino]-1H-pyrazole-4-carboxamide]
20 |  | > 30 | > 30 | C[C@@H](Oc1cc(NS(=O)(=O)CC(F)(F)F)ccc1-c1n[nH]c(Nc2cnccn2)c1C(N)=O)c1ccc(F)cc1 [Compound 254, 3-{2-[(1R)-1-(4-fluorophenyl)ethoxy]-4-(2,2,2-trifluoroethanesulfonamido)phenyl}-5-[(pyrazin-2-yl)amino]-1H-pyrazole-4-carboxamide]
21 |  | > 30 | > 30 | C[C@@H](Oc1cc(NS(=O)(=O)C(F)F)ccc1-c1n[nH]c(Nc2cnccn2)c1C(N)=O)c1ccc(F)cc1 [Compound 255, 3-[4-(difluoromethanesulfonamido)-2-[(1R)-1-(4-fluorophenyl)ethoxy]phenyl]-5-[(pyrazin-2-yl)amino]-1H-pyrazole-4-carboxamide]
22 |  | > 30 | > 30 | C[C@H](Oc1cc(-c2n[nH]c(Nc3cc(C45CC6CC(CC(C6)C4)C5)on3)c2C(N)=O)ccc1NS(=O)(=O)C(F)F)c1ccc(F)cc1 [Compound 304]

— patent US20250074891A1 (Anaxis Pharma Pty Ltd., priority 2021, published 2025)
